Broadly, the pKa is the negative logarithm of the acid dissociation constant. The term solubility denotes the concentration that dissolves in the medium under given conditions. Low readings indicate little dissolved substance, high ones much dissolved substance.

The nature of series [1]: pKa of the α-hydroxyl secondary amine functional group. The class given is physicochemical. An excerpt: (§1) At lower pH values (i.e., at a pH of 1 to 4 in various buffer systems), solubility of carvedilol is limited by the solubility of its protonated form or its corresponding salt formed in-situ.
A short description of series [2]: physchem. Particulars: thermodynamic from solid.
Description: as §1

Series [3] relates to α-adrenergic. Particulars: cited from earlier work.
The test system of series [4] is β-adrenoreceptor. Particulars: cited from earlier work.
The nature of series [5]: aqueous solubility of the crystalline salt compared with free base and other salts. It counts as physicochemical.
The nature of series [6]: solubility of the in-situ salt in acidic medium (simulated gastric fluid). The class given is physicochemical. Conditions: generated in-situ in an acidic medium, such as simulated gastric fluid.

In brackets after ≈: the same amount, converted by molar mass. Where a name gives a salt, the structure may show the parent alone.

`COc1ccccc1OCCNCC(O)COc1cccc2[nH]c3ccccc3c12` (racemic) [Carvedilol]: in series [1], the pKa was 7.8. For the same compound, the solubility in series [2] (pH 5, aqueous buffer) is about 100 µg/mL (≈ 246 µM); in series [2] (pH 7, aqueous buffer), about 23 µg/mL (≈ 56.6 µM); in series [2] (pH 9, aqueous buffer), under 1 µg/mL.
Regarding `COc1ccccc1OCCNC[C@@H](O)COc1cccc2[nH]c3ccccc3c12` (single isomer, unassigned) [R(+) enantiomer], the α-adrenergic blocking activity entry in series [3] is on record as “exhibited”.
With `COc1ccccc1OCCNC[C@H](O)COc1cccc2[nH]c3ccccc3c12` (single isomer, unassigned) [S(−) enantiomer], the “nonselective β-adrenoreceptor blocking activity” value in series [4] is “exhibited”. In addition, in series [3], the α-adrenergic blocking activity entry is “exhibited”.
As for `COc1ccccc1OCCNCC(O)COc1cccc2[nH]c3ccccc3c12` (stereo not shown) [carvedilol hydrobromide], in series [5] (novel crystalline form), the “solubility compared to the free base of carvedilol” value was “much higher solubility”. Moreover, the “aqueous solubility relative to free base or other crystalline salts (hydrochloride)” value in series [5] (pure crystalline solid) was “much higher aqueous solubility”.
As for `COc1ccccc1OCCNCC(O)COc1cccc2[nH]c3ccccc3c12.Cl` (stereo not shown) [hydrochloride salt of carvedilol], the “solubility relative to the protonated form of carvedilol” value in series [6] was “less soluble”.

These data come from patent publication US7649010B2, “Carvedilol hydrobromide” (SmithKline Beechman Cork Limited, priority 2002, dated 2010).
